# Laboratory results taken from patent US7897401B2, “Control of apoptosis by controlling the propensity of ceramide channel formation” (University of Maryland, College Park, priority 2005, dated 2011).
# Legend:
# Type in all cases: biochemical
# [1] = tested on: C16-ceramide channels in the MOM of yeast mitochondria; experiment: Complex IV accessibility assay, isolated yeast mitochondria
# Method: (§1) The ability of the naturally-occurring C16-ceramide to form channels in the mitochondrial outer membranes of isolated yeast mitochondria was assessed via the complex IV accessibility assay. This assay measures the bidirectional flux of cytochrome c across the mitochondrial outer membrane (MOM) by monitoring its oxidation by complex IV of the mitochondrial inner membrane electron transport chain. The initial rate of cytochrome c oxidation when expressed as a percent of the rate measured in mitochondria with damaged outer membranes is a good measure of the permeability of the MOM to proapoptotic proteins. This method has an advantage over simply looking for the release of cytochrome c because both channel prevention and reversal by a potential inhibitor can be evaluated.
# Thus, mitochondria are isolated from wild type yeast and yeast strains expressing either human Bcl-2 or Bcl-xL according to previously published methods (Lee, A. et al. (1998) “THE ROLE OF YEAST VDAC GENES ON THE PERMEABILITY OF THE MITOCHONDRIAL OUTER MEMBRANE,” J. Membr. Biol. 161:173-181). Isolated yeast mitochondria are incubated with the naturally occurring C16-ceramide and its ability to form channels is evaluated according to the complex IV accessibility assay (Siskind, L. J. et al. (2002) “CERAMIDE CHANNELS INCREASE THE PERMEABILITY OF THE MITOCHONDRIAL OUTER MEMBRANE To SMALL PROTEINS,” J. Biol. Chem. 277:26796-26803). This assay measures the CN-sensitive oxidation of exogenously-added reduced cytochrome c by cytochrome c oxidase of the inner membrane. It measures the permeability of the mitochondrial outer membrane (MOM) to cytochrome c. […] Mitochondria are incubated with test agents (e.g., C16-ceramide) for a predetermined period of time (e.g., 5-20 minutes), reduced cytochrome c is added and the absorbance is monitored at 550 nm. […]
# The complex IV accessibility measures of the permeability of the MOM. The initial rate is expressed as a percentage of the rate of cytochrome c oxidation in mitochondria whose outer membranes are ruptured by hypotonic shock. […]
# [2] = tested on: ceramide channels in the mitochondrial outer membrane (MOM); experiment: Adenylate kinase release assay in isolated rat liver mitochondria; settings: for effect of preincubation on C16-ceramide permeabilization of the MOM and adenylate kinase release: 5 min preincubation, C16-ceramide 40 μg/mL, 10 min, low concentration potentiates, higher inhibits
# Method: The preparation yielded a mitochondrial suspension containing 10 mg of protein per mL. […] The mitochondria were then pelleted at 14,000 g for 5 min at 4° C. and the supernatant was kept on ice until assayed. […] The enzymes were added to the rest of the reaction mixture 1 min before the addition of the mitochondrial supernatant to allow a trace of ATP to be consumed. The activity of adenylate kinase was detected as an increase in absorbance at 340 nm. Since the activity of the kinase decays with time, even on ice, experiments were performed in sets and the activity of the first supernatant was assayed again at the end of the set. The values were fitted to a first order decay and all values within the set were corrected for the decay of the activity, based on the time delay before assay.
# To determine the effect of sphingosine pretreatment on ceramide permeabilization of the mitochondrial outer membrane, mitochondria were incubated at room temperature in the presence of varying concentrations of sphingosine for […] before addition of ceramide and incubation for 10 min. Untreated mitochondria and mitochondria hypotonically lysed (20 μl into 1.2 ml water) served as negative and positive controls, respectively.
# Experiments with C16-ceramide were performed in a similar way except as follows. The mitochondria were suspended in the above medium except that the 1 mM Tris buffer was replaced by 5 mM HEPES. To 1.0 mL of this medium at room temperature (RT) was added 17 μL of mitochondrial suspension that had been kept on ice at a concentration of 4 mg/mL. The final mitochondrial protein concentration during the experiment was 80 μg/mL. In the case of shocked mitochondria, the 1.0 mL of medium was replaced by water. Sphingosine was added, where appropriate, from a 0.25 mg/mL solution in DMSO. Typically 4-7 incubations were run in parallel. All samples were incubated for 5 min at RT. Then some samples received 0.4 mL of fatty acid depleted bovine serum albumin (BSA), 25 mg/mL, followed immediately by 20 μL of C16-ceramide dissolved in isopropanol at 2 mg/mL. After a 10-min incubation at RT, 10 μL of 4 mM PMSF was added followed by centrifugation. In these experiments 0.3 mL of mitochondrial supernatant was added to the adenylate kinase reaction mixture.
# [3] = Ability of sphingolipids to form channels in membranes
# Source text: The present invention establishes that sphingosine is capable of directly disassembling ceramide channels, thus proving the existence of this novel anti-apoptotic regulatory step. The ability of sphingosine, sphingosine-1-phosphate ([…]) and ceramide-1-phosphate the ability to form channels was investigated.
# [4] = tested on: mammalian MOM; experiment: Ceramide-induced permeabilization of mammalian MOM; settings: C16-ceramide; read-out: IC50 for inhibition of C16-ceramide-induced permeabilization of mammalian MOM
# [5] = tested on: yeast mitochondria; experiment: Ceramide-induced permeabilization in yeast mitochondria
# [6] = tested on: ceramide channels in the MOM of rat liver mitochondria; experiment: Complex IV accessibility assay (cytochrome c oxidation), isolated rat liver mitochondria
# Source text: The amount of ceramide that needs to be added to mitochondria to achieve permeabilization of the MOM to proteins is high compared to physiological levels. However, it is not the absolute ceramide concentration in solution that is important, but rather the concentration of ceramide in the membrane. In addition, only a small percentage of the ceramide added to the solution actually inserts into the membrane. This issue was directly addressed by using radiolabeled ceramide and simultaneously measuring how much ceramide inserts into rat liver mitochondria and how much permeabilization is achieved in the MOM by measuring the accessibility of exogenously added cytochrome c. […] Levels measured in mitochondria in the early stages of apoptosis are 4 pmoles per nmole. Thus, the results are well within the physiological range. Note that after correcting for the membrane partitioning, long and short-chain ceramide have equal potency as expected from the model of the ceramide channel.
# as §1
# Thus, mitochondria are isolated from wild type yeast and yeast strains expressing either human Bcl-2 or Bcl-xL according to previously published methods (Lee, A. et al. (1998) “THE ROLE OF YEAST VDAC GENES ON THE PERMEABILITY OF THE MITOCHONDRIAL OUTER MEMBRANE,” J. Membr. Biol. 161:173-181). Isolated yeast mitochondria are incubated with the naturally occurring C16-ceramide and its ability to form channels is evaluated according to the complex IV accessibility assay (Siskind, L. J. et al. (2002) “CERAMIDE CHANNELS INCREASE THE PERMEABILITY OF THE MITOCHONDRIAL OUTER MEMBRANE To SMALL PROTEINS,” J. Biol. Chem. 277:26796-26803). This assay measures the CN-sensitive oxidation of exogenously-added reduced cytochrome c by cytochrome c oxidase of the inner membrane. […] Mitochondria are incubated with test agents (e.g., C16-ceramide) for a predetermined period of time (e.g., 5-20 minutes), reduced cytochrome c is added and the absorbance is monitored at 550 nm. […]
# [7] = tested on: ceramide channel in planar phospholipid membrane; experiment: Electrophysiological recordings on planar phospholipid membranes; settings: 0.15 μM protein added while stirring, voltage clamp, FIG. 16
# Source text: Planar phospholipid membranes were produced by the monolayer method (Montal, M. et al. (1972) “FORMATION OF BIMOLECULAR MEMBRANES FROM LIPID MONOLAYERs AND A STUDY OF THEIR ELECTRICAL PROPERTIES,” Proc. Natl. Acad. Sci. USA 69:3561-3566) as modified by Colombini, M. (1987) (“CHARACTERIZATION OF CHANNELS ISOLATED FROM PLANT MITOCHONDRIA,” Methods Enzymol. 148:465-475), across a 100-μm-diameter hole in a Saran partition. Monolayers were produced using a solution of 0.5% w/v asolectin, 0.5% w/v DiPhyPC, 0.1% w/v cholesterol in hexane. This technique produces solvent-free phospholipid membranes whose lipid composition (focusing on the polar head-groups) is similar to that found in the mitochondrial outer membrane. It differs from the natural membrane in lacking proteins.
# The aqueous solutions contained 1 mM MgCl2, and 5 mM Pipes pH 6.8 with KCl varying from 0.10 M to 1.0 M. The KCl concentration on one side of the membrane, referred to as the “trans” side, was always 0.10 M, whereas the other side (the “cis” side) was adjusted as needed. The transmembrane voltage was electronically clamped and the current through the membrane was recorded. The voltage values indicated are the voltage differences across the membrane cis side minus trans side.
# C2-ceramide was stirred into the aqueous solution on each side of the membrane from a solution in DMSO, generally 0.5 mg/ml. Single or multiple additions, typically […] each, yielding a final concentration of 2 μg/ml, were made to achieve a desired level of conductance. Sphingosine additions of 5 μl were made from a solution in DMSO (4 mg/mL) yielding a final concentration of 4 μg/mL.
# The observation that anti-apoptotic Bcl-2 family proteins inhibit ceramide channel formation in isolated yeast and rat liver mitochondria correlates with previous reports showing inhibition of ceramide-induced apoptosis in whole cells by these proteins. Thus the results directly tie ceramide-induced mitochondrial-mediated apoptosis with the Bcl-2 family of proteins known to regulate these events. To address whether the antiapoptotic proteins act directly on ceramide channels or work by an indirect action, their affects on ceramide channels in solvent-free planar phospholipid membranes was tested. This is a defined system free of other proteins. When C16-ceramide is added to the aqueous solution bathing one side of a planar phospholipid membrane, it results in discontinuous increases in conductance under voltage-clamp conditions, the defining characteristic of channel formation in membranes. These conductance increments are the enlargement of one ceramide channel rather than the formation of multiple ceramide channels in parallel (Siskind, L. J. et al. (2003) “ENLARGEMENT AND CONTRACTURE OF C2-CERAMIDE CHANNELS,” Biophys. J. 85:1560-1575). […]
# [8] = tested on: ceramide channels in mitochondrial outer membranes; experiment: Dihydroceramide inhibition of ceramide channel formation in mitochondrial outer membranes (rate of oxidation of exogenously-added cytochrome c)
# Source text: The permeability was monitored by recording the rate of oxidation of exogenously-added cytochrome c. Ceramide (C2) was present at all data points except for the highest amount of dihydroceramide (DHC2) added (29 nmol).
compound,measurement,setting,value
CCCCCCCCCCCCC/C=C/[C@@H](O)[C@H](CO)NC(=O)CCCCCCCCCCCCCCC [C16-ceramide],channel formation in the MOM of isolated wild-type yeast mitochondria,"[1]; 10 min incubation, FIG. 13A",forms channels
CCCCCCCCCCCCC/C=C/[C@H](O)[C@@H](N)CO [L-threo sphingosine],permeabilization of the MOM to adenylate kinase after removal of excess compound with BSA,"[2]; 2.4 μg/mL for 5 min, then fatty acid depleted BSA, no ceramide added",no penneabilization of the MOM to adenylate kinase was observed
same,effect of preincubation on C16-ceramide permeabilization of the MOM and adenylate kinase release,[2],same biphasic effect
same,effect of preincubation on C16-ceramide permeabilization of the MOM and adenylate kinase release,[2]; listed as L-sphingosine,same results as D-sphingosine
"CCCCCCCCCCCCC/C=C/[C@@H](O)[C@@H](N)COP(=O)(O)O [S-1-P, sphingosine-1-phosphate]",ability to form channels,[3],destabilized membranes
CCCCOc1cc(C(=O)NCCN(CC)CC)c2ccccc2n1 [dibucaine],IC50,[4],230 µM
same,effect on ceramide C2-induced permeabilization,[5],inhibited
same,effect on ceramide C16-induced permeabilization,[5],somewhat potentiated
CC(C)NCC(O)COc1cccc2ccccc12 (centres unmarked) [propranolol],IC50,[4],410 µM
same,effect on ceramide C2-induced permeabilization,[5],inhibited
same,effect on ceramide C16-induced permeabilization,[5],somewhat potentiated
Bcl-2: full-length human Bcl-2 expressed in yeast cells,sensitivity to C16-ceramide channel formation of mitochondria from yeast expressing the protein,[1]; full-length human Bcl-2 expressed in yeast vs empty vector control,resistant to C16-ceramide channel formation
FL Bcl-xL: purified recombinant full-length anti-apoptotic protein Bcl-xL,level at which disassembly of preformed C16-ceramide channels was observed,"[6]; C16-ceramide before protein (reversal), biphasic, FIG. 15A",≤ 5 µg
same,level giving almost complete prevention of C16-ceramide channel formation,"[6]; protein 10 min before 20 μM C16-ceramide 10 min, FIG. 15A",1.5 µg
same,effect on C16-ceramide channels (prevention and reversal) in MOM of isolated yeast mitochondria,"[1]; 20 μg protein, 20 μM C16-ceramide, 10 min each, FIG. 13D-F",prevention and reversal of the C16-ceramide channels was observed
same,effect on conductance of a stable C16-ceramide channel,[7],dramatic decrease in the ceramide conductance to baseline
ceramide-1-phosphate [C-1-P],ability to form channels,[3],without reproducible effect
dihydroceramide,permeabilization of the MOM to cytochrome c,[6]; inserts into mitochondrial membranes to the same degree as ceramide,lack of effect
same,effect on already formed ceramide channels,[8],does not induce channel disassembly
same,"level that inhibits ceramide channel formation, relative to the ceramide level","[8]; found in liposomes and isolated mitochondria, FIG. 11 with C2-ceramide",10%
